Assay results reported in patent publication US6350749B1, “Aminoguanidine hydrazone derivatives, process for producing the same and drugs thereof” (Takeda Chemical Industries, Ltd., priority 1998, dated 2002).
Structures can show the parent of a compound that is named as a salt.

Test system: not given
Assay: not given
Conditions: not given

melting point | SMILES
142 °C (dec.) | Cl.N=C(N)NN=C1CC(c2ccccc2)Cc2c1ccn2Cc1ccccc1 (stereo not drawn)
281 to 283 °C (dec.) | Cc1ccnc2c1C(=NNC(=N)N)CC(c1ccsc1Cl)C2.Cl (stereo not drawn)
201 to 202 °C (dec.) | Cc1ccnc2c1C(=NNC(=N)NO)CC(c1ccsc1)C2.Cl (stereo not drawn)
270 °C (dec.) | CS(=O)(=O)n1ccc2c1CC(c1ccccc1)CC2=NNC(=N)N.Cl (stereo not drawn)
≥ 300 °C | Cc1ccnc2c1C(=NNC(=N)N)CC(c1cc(Cl)ccc1Cl)C2.Cl (stereo not drawn)
194 to 196 °C (dec.) | Cc1ccnc2c1C(=NNC(=N)NO)CC(c1cc(Br)sc1Br)C2.Cl (stereo not drawn)
260 °C (dec.) | Cc1cn(S(C)(=O)=O)c2c1C(=NNC(=N)N)CC(c1ccccc1)C2.Cl (stereo not drawn)
278 to 280 °C (dec.) | Cc1cnnc2c1C(=NNC(=N)N)CC(c1ccsc1)C2.Cl (stereo not drawn)
260 °C (dec.) | CCc1cn(S(C)(=O)=O)c2c1C(=NNC(=N)N)CC(c1ccccc1)C2.Cl (stereo not drawn)
248 °C (dec.) | CS(=O)(=O)O.Cc1ccnc2c1C(=NNC(=N)N)CC(c1cc(Cl)ccc1Cl)C2 (stereo not drawn)
208 to 210 °C | Cl.N=C(N)NN=C1CC(c2ccccc2Cl)Cc2[nH]nc(Nc3ccccc3)c21 (stereo not drawn)
185 °C (dec.) | Cl.N=C(N)NN=C1CC(c2ccccc2Cl)Cc2[nH]nc(-c3ccccc3)c21 (stereo not drawn)
210 to 212 °C | COCc1n[nH]c2c1C(=NNC(=N)N)CC(c1ccccc1Cl)C2.Cl (stereo not drawn)
185 °C (dec.) | Cc1c2c(nn1CCc1ccccc1)CC(c1ccccc1Cl)CC2=NNC(=N)N.Cl (stereo not drawn)
210 °C (dec.) | Cc1nn(CCCc2ccccc2)c2c1C(=NNC(=N)N)CC(c1ccccc1Cl)C2.Cl (stereo not drawn)
170 to 180 °C | Cc1c2c(nn1CCCc1ccccc1)CC(c1ccccc1Cl)CC2=NNC(=N)N.Cl (stereo not drawn)
176 to 178 °C | Cc1cnnc2c1C(=NNC(=N)NO)CC(c1cc(Cl)sc1Cl)C2.Cl (stereo not drawn)
210 °C (dec.) | Cc1cnnc2c1C(=NNC(=N)NO)CC(c1ccccc1Cl)C2.Cl (stereo not drawn)
≥ 300 °C | Cc1cc[n+]([O-])c2c1C(=NNC(=N)N)CC(c1cc(Cl)sc1Cl)C2.Cl (stereo not drawn)
249 to 250 °C | Cc1c[n+]([O-])nc2c1C(=NNC(=N)N)CC(c1ccccc1Cl)C2.Cl (stereo not drawn)

melting point | SMILES
256 to 258 °C | Cc1cnnc2c1C(=NNC(=N)N)CC(c1cc(Cl)ccc1Cl)C2.Cl (stereo not drawn)
215 to 220 °C | Cc1ccc(Cl)cc1C1CC(=NNC(=N)N)c2c(C)ccnc2C1.Cl (stereo not drawn)
264 to 266 °C | Cc1ccnc2c1C(=NNC(=N)N)CC(c1cc(F)ccc1O)C2.Cl (stereo not drawn)
268 °C (dec.) | Cc1ccnc2c1C(=NNC(=N)N)CC(c1cc(F)ccc1Cl)C2.Cl (stereo not drawn)
198 to 200 °C | Cc1cc(Cl)c(C2CC(=NNC(=N)N)c3c(C)ccnc3C2)s1.Cl (stereo not drawn)
240 to 242 °C | Cc1ccc(Cl)c(C2CC(=NNC(=N)N)c3c(C)cnnc3C2)c1.Cl (stereo not drawn)
252 to 256 °C | Cc1ccc(S(=O)(=O)n2ccc3c2CC(c2ccccc2)CC3=NNC(=N)N)cc1.Cl (stereo not drawn)
202 °C (dec.) | COc1ccccc1C1CC(=NNC(=N)N)c2c(C)n[nH]c2C1.Cl (stereo not drawn)
158 to 160 °C | CCc1c[nH]c2c1C(=NNC(=N)N)CC(c1ccccc1)C2.Cl (stereo not drawn)
277 °C (dec.) | Cc1coc2c1/C(=N/NC(=N)N)CC(c1ccc(F)cc1)C2.Cl (stereo not drawn)
266 °C (dec.) | Cc1ccccc1C1CC(=NNC(=N)N)c2c(C)coc2C1.Cl (stereo not drawn)
235 to 236 °C | Cc1ccc(C)c(C2C/C(=N\NC(=N)N)c3c(C)coc3C2)c1.Cl (stereo not drawn)
215 °C (dec.) | Cc1cc2c([nH]1)CC(c1ccccc1)CC2=NNC(=N)N.Cl (stereo not drawn)
300 °C (dec.) | Cc1coc2c1/C(=N/NC(=N)N)CC(c1ccccc1Cl)C2.Cl (stereo not drawn)
279 °C (dec.) | COc1ccccc1C1C/C(=N\NC(=N)N)c2c(C)coc2C1.Cl (stereo not drawn)
287 °C (dec.) | Cc1ccc(C2Cc3occc3/C(=N/NC(=N)N)C2C)s1.Cl (stereo not drawn)
291 °C (dec.) | Cl.N=C(N)N/N=C1\CC(c2ccccc2)Cc2occ(C(F)(F)F)c21 (stereo not drawn)
247 °C (dec.) | Cc1ccccc1C1CC(=NNC(=N)N)c2c(C(F)(F)F)coc2C1.Cl (stereo not drawn)
289 °C (dec.) | Cl.N=C(N)N/N=C1\CC(c2ccccc2Br)Cc2occ(C(F)(F)F)c21 (stereo not drawn)
260 °C (dec.) | CCOC(=O)c1coc2c1/C(=N/NC(=N)N)CC(c1ccccc1)C2.Cl (stereo not drawn)

melting point | SMILES
260 to 262 °C | Cc1ccc(C)c(C2CC(=NNC(=N)N)c3c(C)ccnc3C2)c1.Cl (stereo not drawn)
270 to 272 °C | Cc1ccnc2c1C(=NNC(=N)N)CC(c1cccc(Cl)c1Cl)C2.Cl (stereo not drawn)
≥ 300 °C | Cc1ccnc2c1C(=NNC(=N)N)CC(c1c(Cl)cccc1Cl)C2.Cl (stereo not drawn)
192 °C (dec.) | COc1ccccc1C1CC(=NNC(=N)N)c2c(C)ccnc2C1.Cl (stereo not drawn)
205 °C (dec.) | Cl.Cn1ccc2c1CC(c1ccccc1)CC2=NNC(=N)N (stereo not drawn)
271 to 273 °C | Cc1ccc(C2CC(=NNC(=N)N)c3c(C)ccnc3C2)s1.Cl (stereo not drawn)
260 °C (dec.) | Cc1ccnc2c1C(=NNC(=N)N)CC(c1ccccn1)C2.Cl (stereo not drawn)
259 °C (dec.) | Cc1ccnc2c1C(=NNC(=N)N)CC(c1ccc(F)cc1)C2.Cl (stereo not drawn)
232 °C (dec.) | Cc1cc(C)c2c(n1)CC(c1ccccc1F)CC2=NNC(=N)N.Cl (stereo not drawn)
227 °C (dec.) | Cc1cc(C)c2c(n1)CC(c1ccccc1Cl)CC2=NNC(=N)N.Cl (stereo not drawn)
240 °C (dec.) | CNC(=N)NN=C1CC(c2ccccc2Cl)Cc2[nH]nc(C)c21.Cl (stereo not drawn)
190 to 192 °C (dec.) | Cc1ccc(C)c(C2CC(=NNC(=N)NO)c3c(C)ccnc3C2)c1.Cl (stereo not drawn)
193 to 195 °C (dec.) | Cc1ccnc2c1C(=NNC(=N)NO)CC(c1c(Cl)cccc1Cl)C2.Cl (stereo not drawn)
194 to 195 °C | CS(=O)(=O)O.Cc1ccnc2c1C(=NNC(=N)N)CC(c1ccccc1Cl)C2 (single isomer, unassigned; (-)) [Compound 64, (−)-7-(2-chlorophenyl)-5-guanidinoimino-4-methyl-5,6,7,8-tetrahydroquinoline methanesulfonate]
194 to 196 °C | CS(=O)(=O)O.Cc1ccnc2c1C(=NNC(=N)N)CC(c1ccccc1Cl)C2 (stereo not drawn) [Compound 65]
265 to 266 °C (dec.) | N=C(N)NN=C1CC(c2cc(Cl)sc2Cl)Cc2nncc(C(F)(F)F)c21 (stereo not drawn) [Compound 135, 7-(2,5-dichlorothiophen-3-yl)-5-guanidinoimino-4-trifluoromethyl-5,6,7,8-tetrahydrocinnoline]
168 to 172 °C | CS(=O)(=O)O.Cc1ccnc2c1C(=NNC(=N)N)CC(c1sc(Cl)cc1Cl)C2 (stereo not drawn) [Compound 143]
172 to 176 °C | CS(=O)(=O)O.Cc1ccnc2c1C(=NNC(=N)N)CC(c1sc(Cl)cc1Cl)C2 (stereo not drawn) [Compound 144]

SMILES | melting point
Cc1ccnc2c1C(=NNC(=N)N)CC(c1cc(Cl)sc1Cl)C2.Cl (stereo not drawn) | ≥ 300 °C
CS(=O)(=O)O.Cc1ccnc2c1C(=NNC(=N)N)CC(c1cc(Cl)sc1Cl)C2.O (stereo not drawn) (hydrate or solvate) | 239 to 241 °C
Cc1ccnc2c1C(=NNC(=N)N)CC(c1cc(Cl)sc1Cl)C2 (racemic) [Compound 108, (±)-7-(2,5-dichlorothiophen-3-yl)-5-guanidinoimino-4-methyl-5,6,7,8-tetrahydroquinoline] | 250 to 251 °C
Cc1ccnc2c1C(=NNC(=N)N)CC(c1cc(Cl)sc1Cl)C2 (single isomer, unassigned; (-)) [Compound 112, (−)-7-(2,5-dichlorothiophen-3-yl)-5-guanidinoimino-4-methyl-5,6,7,8-tetrahydroquinoline] | 129 to 133 °C
CS(=O)(=O)O.Cc1ccnc2c1C(=NNC(=N)N)CC(c1cc(Cl)sc1Cl)C2 (stereo not drawn) [Compound 111] | 225 to 229 °C

Target: T1, Na—H exchange (Rattus norvegicus, UniProt P26431)
T1 construct: The blood was centrifuged at 3000 rpm for 5 seconds to obtain platelet rich plasma (PRP); from tissue; host or cells: platelets in platelet rich plasma from abdominal aortic blood of male Wistar rats
Assay: Rat platelet swelling in sodium propionate solution (light transmittance of PRP), inhibition of Na—H exchange
Format: cell-based
Conditions: 1 min, read-out: Inhibition Rate (%) [10^−7 M]
Protocol: Male Wistar rats (350-450 g) were anesthetized with sodium pentobarbital (50 mg/kg, i.p.). Using a disposable syringe pre-filled with 1.5 ml of 3.8% citric acid solution, 8.5 ml of blood was collected from the abdominal aorta. The blood was centrifuged at 3000 rpm for 5 seconds to obtain platelet rich plasma (PRP). The number of platelets in the PRP was counted by an automatic hemocytometer (Sysmex 2500, TOA Medical Electronics). The PRP was diluted with physiological saline to make the concentration of 40×10^4 platelets per 1 μl. A platelet aggregometer (Hematoracer, Niko Bioscience) was used for measurement of the platelet swelling. 200 μl of the PRP was poured into a cuvette and 600 μl of sodium propionate solution (Na propionate 135, glucose 10, Hepes 20, CaCl2 1, MgCl2 1; Units: mM; pH6.7) was added while stirring at 37° C. The change in the light transmittance of PRP which was an indicator of the platelet swelling was recorded on a plotter. The test compound was added 3 minutes before addition of the sodium propionate solution. The test compounds were dissolved in dimethylsulfoxide (DMSO).

T1 sequence (P26431 whole entry): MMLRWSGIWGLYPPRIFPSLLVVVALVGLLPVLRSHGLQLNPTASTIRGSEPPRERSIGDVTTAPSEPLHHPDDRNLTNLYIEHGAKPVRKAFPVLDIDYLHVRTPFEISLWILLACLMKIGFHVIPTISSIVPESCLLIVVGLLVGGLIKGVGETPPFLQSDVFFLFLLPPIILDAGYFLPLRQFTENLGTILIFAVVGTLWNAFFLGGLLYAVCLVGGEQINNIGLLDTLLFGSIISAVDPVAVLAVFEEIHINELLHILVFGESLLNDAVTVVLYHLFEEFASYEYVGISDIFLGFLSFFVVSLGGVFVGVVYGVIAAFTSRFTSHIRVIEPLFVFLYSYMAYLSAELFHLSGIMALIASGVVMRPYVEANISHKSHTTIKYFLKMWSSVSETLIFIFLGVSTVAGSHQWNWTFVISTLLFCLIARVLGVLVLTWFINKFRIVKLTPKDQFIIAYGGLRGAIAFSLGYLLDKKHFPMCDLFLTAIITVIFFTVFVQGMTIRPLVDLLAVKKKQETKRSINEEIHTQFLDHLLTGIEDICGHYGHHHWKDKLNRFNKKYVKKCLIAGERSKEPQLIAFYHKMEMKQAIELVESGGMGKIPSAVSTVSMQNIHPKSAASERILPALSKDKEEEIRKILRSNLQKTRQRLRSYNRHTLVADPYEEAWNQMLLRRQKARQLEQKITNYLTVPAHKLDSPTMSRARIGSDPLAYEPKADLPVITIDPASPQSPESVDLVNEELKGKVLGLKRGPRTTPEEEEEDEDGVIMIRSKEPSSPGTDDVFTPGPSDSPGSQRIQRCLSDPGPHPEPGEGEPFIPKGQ

SMILES | inhibition at 0.1 µM
Cc1ccnc2c1C(=NNC(=N)N)CC(c1cc(Cl)sc1Cl)C2 (single isomer, unassigned; (-)) [Compound 109, (−)-7-(2,5-dichlorothiophen-3-yl)-5-guanidinoimino-4-methyl-5,6,7,8-tetrahydroquinoline hydrochloride] | 91%

Same assay, conditions: 1 min, test compound 10^−7 M; rat platelet rich plasma; value 1 minute after sodium propionate solution; 100% = difference between 1% DMSO and HOE-642 (10^−5M); read-out: Inhibition Rate (%) [10^−7 M]

inhibition at 0.1 µM | SMILES
86% | CS(=O)(=O)O.Cc1ccnc2c1C(=NNC(=N)N)CC(c1ccccc1Cl)C2 (single isomer, unassigned; (-)) [Compound 64, (−)-7-(2-chlorophenyl)-5-guanidinoimino-4-methyl-5,6,7,8-tetrahydroquinoline methanesulfonate]
72% | Cc1n[nH]c2c1C(=NNC(=N)N)CC(c1ccccc1Cl)C2 (stereo not drawn) [Compound 21, 4-guanidinoimino-6-(2-chlorophenyl)-3-methyl-4,5,6,7-tetrahydroindazole hydrochloride]
72% | Cc1ccnc2c1C(=NNC(=N)N)CC(c1ccccc1F)C2 (stereo not drawn) [Compound 59, 7-(2-fluorophenyl)-5-guanidinoimino-4-methyl-5,6,7,8-tetrahydroquinoline hydrochloride]
75% | CCOc1ccnc2c1C(=NNC(=N)N)CC(c1ccccc1Cl)C2 (stereo not drawn) [Compound 80, 7-(2-chlorophenyl)-4-ethoxy-5-guanidinoimino-5,6,7,8-tetrahydroquinoline hydrochloride]
83% | CCc1cnnc2c1C(=NNC(=N)N)CC(c1cc(Cl)sc1Cl)C2 (stereo not drawn) [Compound 134, 7-(2,5-dichlorothiophen-3-yl)-4-ethyl-5-guanidinoimino-5,6,7,8-tetrahydrocinnoline methanesulfonate]
